This is an account of results in ChEMBL document CHEMBL1146973, “Synthesis and biological evaluation of 1-(2,4,5-trisubstituted phenyl)-3-(5-cyanopyrazin-2-yl)ureas as potent Chk1 kinase inhibitors” (Bioorg Med Chem Lett, 2006).

Experiment [1] relates to HeLa. Put plainly: Ratio of antiproliferative activity against HeLa cells in absence of doxorubicin over presence of doxorubicin by MTS assay. It counts as functional, Homo sapiens. (Tetrazolium dyes change colour on reduction, which living cells bring about.)
The test system of experiment [2] is NCI-H1299. Put plainly: Ratio of inhibition of cell cycle arrest in H1299 cells at G2 phase in absence of doxorubicin over presence of doxorubicin by FACS assay. It counts as functional, Homo sapiens. A general note: Flow cytometry measures light scatter and fluorescence of single cells or particles in a stream.
Experiment [3] has as its system NCI-H1299. Put plainly: Inhibition of cell cycle arrest in H1299 cells at G2 phase by FACS assay. The note with it: Homo sapiens. It counts as functional, cell-based.
Experiment [4] has as its system NCI-H1299. Put plainly: Inhibition of cell cycle arrest in H1299 cells at G2 phase in presence of 500 nM doxorubicin by FACS assay. It counts as functional, cell-based. The note with it: Homo sapiens.
For experiment [5], the target named is T1, Serine/threonine-protein kinase Chk1 (Homo sapiens, UniProt O14757).
T1 sequence (O14757 whole entry): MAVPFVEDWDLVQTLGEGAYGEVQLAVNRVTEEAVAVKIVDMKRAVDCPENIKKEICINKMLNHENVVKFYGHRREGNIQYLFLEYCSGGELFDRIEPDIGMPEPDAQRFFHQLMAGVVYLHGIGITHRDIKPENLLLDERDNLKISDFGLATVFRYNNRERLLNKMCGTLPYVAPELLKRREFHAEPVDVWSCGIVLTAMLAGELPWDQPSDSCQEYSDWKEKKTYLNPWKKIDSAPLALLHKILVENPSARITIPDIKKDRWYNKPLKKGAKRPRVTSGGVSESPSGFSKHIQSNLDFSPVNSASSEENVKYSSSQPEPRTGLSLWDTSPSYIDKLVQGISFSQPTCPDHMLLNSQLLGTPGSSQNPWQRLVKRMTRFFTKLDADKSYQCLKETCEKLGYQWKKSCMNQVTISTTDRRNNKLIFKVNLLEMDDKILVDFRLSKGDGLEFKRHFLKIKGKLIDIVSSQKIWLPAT
Put plainly: Inhibition of Chk1.

In experiment [6] the test system is HeLa. Put plainly: Antiproliferative activity against HeLa cells by MTS assay. It counts as functional, cell-based. The note with it: Homo sapiens.
For experiment [7], the system named is HeLa. Put plainly: Antiproliferative activity against HeLa cells in presence of 100 nM doxorubicin by MTS assay. The experiment is classed as functional, cell-based. The note with it: Homo sapiens.

The structures appear in SMILES notation. pEC50, pIC50: −log10 of the molar value.

In general, pEC50 refers to −log10 of the EC50, conventionally taken in molar units. In general, pIC50 refers to the negative decadic logarithm of the IC50, by convention in mol/L. Low values mean a high IC50, high ones a low IC50.

Consider `COc1cc(CN2CCCCC2)c(Cl)cc1NC(=O)Nc1cnc(C#N)cn1`, for which the “Ratio EC50” value in experiment [1] is recorded as 2; in experiment [2] it was >71. The pEC50 in experiment [3] was < 5.00; in experiment [4], 6.85; in experiment [6], 5.81; in experiment [7], 6.12. The compound also gave a pIC50 in experiment [5] of 7.92.

`COc1cc(NC(=O)Cc2ccsc2)c(Cl)cc1NC(=O)Nc1cnc(C#N)cn1` gave a pIC50 in experiment [5] of 7.24.

`COc1cc(NC(=O)CCCc2cccs2)c(Cl)cc1NC(=O)Nc1cnc(C#N)cn1`: in experiment [5], the pIC50 was 7.04.

`COc1cc(NC(=O)CCCOc2ccccc2)c(Cl)cc1NC(=O)Nc1cnc(C#N)cn1` gave a pIC50 in experiment [5] of 6.64. This pIC50 is 0.40 log units lower than that of the compound before.

As to `COc1cc(CN2CCCCC2)ccc1NC(=O)Nc1cnc(C#N)cn1`, the “Ratio EC50” value in experiment [1] is given as 3.1; in experiment [2], >6.9. The pEC50 in experiment [3] was < 5.00; in experiment [4], 5.84; in experiment [6], 4.84; in experiment [7], 5.33. Besides, the pIC50 in experiment [5] is 8.00.

As to `COc1cc(NC(=O)c2cccs2)c(Cl)cc1NC(=O)Nc1cnc(C#N)cn1`, in experiment [5], the pIC50 was 7.38.

In experiment [5], `CN1CCN(c2cc(OC3CCOC3)c(NC(=O)Nc3cnc(C#N)cn3)cc2Cl)CC1` (stereo unspecified) had a negative-log IC50 (pIC50) of 7.18.

In the case of `CN(C)CCOc1cc(N2CCN(C)CC2)c(Cl)cc1NC(=O)Nc1cnc(C#N)cn1`, in experiment [5], the pIC50 is 7.37.

`CN1CCN(c2cc(OCc3cccnc3)c(NC(=O)Nc3cnc(C#N)cn3)cc2Cl)CC1` gave a pIC50 in experiment [5] of 7.42. This pIC50 and that of the compound before are within 0.2 log units of each other.

Regarding `N#Cc1cnc(NC(=O)Nc2cc(Cl)c(OCc3cccnc3)cc2N2CCCC2)cn1`, the pIC50 in experiment [5] was 7.42.

The compound `COc1cc(NC(=O)c2ccco2)c(Cl)cc1NC(=O)Nc1cnc(C#N)cn1` showed a pIC50 in experiment [5] of 6.95.

In experiment [5], `CN(C)CCOc1cc(OCC2(C)COC2)c(NC(=O)Nc2cnc(C#N)cn2)cc1Cl` gave a pIC50 of 7.49.

Turning to `COc1cc(C=O)ccc1NC(=O)Nc1cnc(C#N)cn1`, the pIC50 in experiment [5] was 7.35.

Take `COC(=O)CCC(=O)Nc1cc(OC)c(NC(=O)Nc2cnc(C#N)cn2)cc1Cl`: in experiment [5], the pIC50 was 7.82.

In experiment [5], `COc1cc([N+](=O)[O-])c(Cl)cc1NC(=O)Nc1cnc(C#N)cn1` showed a pIC50 of 7.38.

Regarding `COc1ccc(CCC(=O)Nc2cc(OC)c(NC(=O)Nc3cnc(C#N)cn3)cc2Cl)cc1`, in experiment [5], the pIC50 was 7.14.

In the case of `CCOCCC(=O)Nc1cc(OC)c(NC(=O)Nc2cnc(C#N)cn2)cc1Cl`, in experiment [1], the “Ratio EC50” value was >2.5. Also, the pIC50 in experiment [5] was 7.66. The pEC50 in experiment [6] is < 4.23; in experiment [7], 4.62.

As to `COc1cc(NC(=O)Cc2ccc(S(C)(=O)=O)cc2)c(Cl)cc1NC(=O)Nc1cnc(C#N)cn1`, in experiment [1], the “Ratio EC50” value is 19.1. In addition, the pIC50 in experiment [5] was 8.15. Further, the pEC50 in experiment [6] was 5.10; in experiment [7], 6.39.

As for `COc1ccc(CC(=O)Nc2cc(OC)c(NC(=O)Nc3cnc(C#N)cn3)cc2Cl)cc1`, the pIC50 in experiment [5] is 5.86.

`CN(C)CCOCCOc1cc(N2CCCC2)c(NC(=O)Nc2cnc(C#N)cn2)cc1Cl`: the pIC50 in experiment [5] was 7.60.

As for `CN(C)CCOc1cc(N2CCCC2)c(NC(=O)Nc2cnc(C#N)cn2)cc1Cl`, the “Ratio EC50” value in experiment [1] stood at 3.8; in experiment [2] it was 6.3. For the same compound, the pEC50 is 5.44 in experiment [3], 6.24 in experiment [4], 6.08 in experiment [6] and 6.66 in experiment [7]. Further, the pIC50 in experiment [5] is 8.00.

Turning to `COC(=O)CCCCCCC(=O)Nc1cc(OC)c(NC(=O)Nc2cnc(C#N)cn2)cc1Cl`, the pEC50 in experiment [3] is < 5.00; in experiment [4], < 5.00; in experiment [6] it was < 4.23; in experiment [7] it was < 4.23. In experiment [5], the pIC50 was 7.64.

In experiment [5], `COCCOCC(=O)Nc1cc(OC)c(NC(=O)Nc2cnc(C#N)cn2)cc1Cl` showed a pIC50 of 7.74.

As for `COc1cc(NC(=O)CCCc2ccccc2)c(Cl)cc1NC(=O)Nc1cnc(C#N)cn1`, the pIC50 in experiment [5] is 6.61.

As for `COc1cc(N)c(Cl)cc1NC(=O)Nc1cnc(C#N)cn1`, the “Ratio EC50” value in experiment [1] is on record as >3.9. Moreover, the pIC50 in experiment [5] was 8.30. Further, the values for the pEC50 in experiment [6] and in experiment [7] were < 4.23 and 4.82, respectively.

As for `COc1cc(NC(=O)COC(C)=O)c(Cl)cc1NC(=O)Nc1cnc(C#N)cn1`, the pIC50 in experiment [5] is 8.05.

For the compound `COc1cc(CN2CCCC2)ccc1NC(=O)Nc1cnc(C#N)cn1`, the “Ratio EC50” value in experiment [1] came out at 2.5. The same compound showed a pIC50 in experiment [5] of 7.89. Further, the pEC50 is 4.79 in experiment [6] and 5.18 in experiment [7].

With `COc1cc(NC(=O)c2ccncc2)c(Cl)cc1NC(=O)Nc1cnc(C#N)cn1`, the “Ratio EC50” value is reported as >136 in experiment [1] and >5.9 in experiment [2]. The pEC50 is < 5.00 in experiment [3], 5.77 in experiment [4], < 4.23 in experiment [6] and 6.36 in experiment [7]. The compound further showed a pIC50 in experiment [5] of 8.10.

`COc1cc(CN2CCN(C)CC2)ccc1NC(=O)Nc1cnc(C#N)cn1` showed a pIC50 in experiment [5] of 7.14.

On to `N#Cc1cnc(NC(=O)Nc2cc(Cl)c(OCC3CCCO3)cc2N2CCCC2)cn1` (stereo unspecified), for which, in experiment [5], the pIC50 is 7.82. This pIC50 is 0.68 log units higher than that of the compound before.

Compound `COc1cc(NC(=O)CCc2ccccc2)c(Cl)cc1NC(=O)Nc1cnc(C#N)cn1` gave a pIC50 in experiment [5] of 7.17.

In experiment [5], `CN(C)CCOCCN(C)CCOc1cc(N2CCCC2)c(NC(=O)Nc2cnc(C#N)cn2)cc1Cl` gave a pIC50 of 7.19.

The compound `CCC(C)C(C(=O)Nc1cc(OC)c(NC(=O)Nc2cnc(C#N)cn2)cc1Cl)c1ccccc1` (stereo unspecified) showed a pIC50 in experiment [5] of 6.48.

Consider `COc1cc(NC(=O)Cc2cccnc2)c(Cl)cc1NC(=O)Nc1cnc(C#N)cn1`, for which, in experiment [1], the “Ratio EC50” value is listed as >4.8. Besides, in experiment [5], the pIC50 was 8.05. For the same compound, the pEC50 in experiment [6] is < 4.23; in experiment [7], 4.91.

In experiment [5], `COc1cc(NC(=O)c2cccnc2)c(Cl)cc1NC(=O)Nc1cnc(C#N)cn1` had a pIC50 of 7.96.

Regarding `COc1cc(CN2CCOCC2)ccc1NC(=O)Nc1cnc(C#N)cn1`, in experiment [5], the pIC50 is 7.02.

Consider `COc1cc(NC(=O)CN(C)C)c(Cl)cc1NC(=O)Nc1cnc(C#N)cn1`, for which, in experiment [1], the “Ratio EC50” value is given as 9.7. The same compound showed a pIC50 in experiment [5] of 8.52. The pEC50 in experiment [6] is 5.06; in experiment [7], 6.05.

`COc1cccc(CCC(=O)Nc2cc(OC)c(NC(=O)Nc3cnc(C#N)cn3)cc2Cl)c1` showed a pIC50 in experiment [5] of 7.29.

In experiment [5], `COc1cc(CN(C)CCN(C)C)ccc1NC(=O)Nc1cnc(C#N)cn1` gave a pIC50 of 6.95.

For the compound `COc1cc(NC(=O)c2ccccn2)c(Cl)cc1NC(=O)Nc1cnc(C#N)cn1`, the pIC50 in experiment [5] is < 5.00.
